Patent EP2420842A1, “In vivo imaging of calcified lesions” (Rheinisch-Westfälische Technische Hochschule Aachen (RWTH), priority 2010, dated 2012)

Columns and labels:
calcifications [1] = experiment: Explanted organ fluorescence, 2D reflectance imaging and ROI quantification after co-injection of both probes; assay type: in vivo, DBA/2 mice
calcifications [2] = experiment: Combined fluorescence molecular tomography and micro computed tomography (CT-FMT fusion); assay type: in vivo, mice
Procedure: A dual energy µCT for small animals (TomoScope DUO, CT-Imaging, Erlangen, Germany) was used for anatomical image acquisition. The two electron tubes were both run at energies of 65KV. Each flat panel detector acquired 720 projections at 5 fps, containing 1032x1012 pixels with a pixel size of (50µm)^2. A full rotation was performed and the scan time was 90 seconds per subscan covering 30.8 mm in the transversal direction. Two subscans were acquired to cover almost the entire mouse body. A Feldkamp algorithm was used for reconstruction with isotropic voxel size of […], dimensions of 600x500x440, field of view of 42mm x 35mm x 30.8mm and a soft reconstruction kernel (T10).
The FMT probe was injected 24 hours before imaging through i.v. tail vein injection. Hair was removed with depilatory crème around the region of interest. For preparations and imaging, mice were anesthetized with Isofluran. […]
The reconstructed 3D data sets from CT and FMT were fused by computing a rigid body transformation minimizing the residual error between fiducial markers detected in both modalities. […] The average number of markers that were found in both modalities was 12 with average fiducial error of 0.174mm, which was evaluated on a representative set of 31 scans. […]

calcifications [3] = experiment: In vivo whole body fluorescence, 2D mode (FMT instrument); design: species or system DBA/2 mice; conditions: standard sensitivity settings
Procedure: (§1) We used the FMT™ 2500 instrument from VisEn Medical Inc. (Bedford, MA). Mice were anesthetized with Isofluran (1.5% air 2L/min), depilated in the scanning area and a background measurement was taken for both wavelengths (680 nm and 750 nm). After this procedure the animals received both OsteoSense 750® (2 nmol in a volume of 150 µl) and Fetuin-A Alexa 680 (50 µl of a 7mg/ml solution) by intraperitoneal injection. 24 h after this application, the mice were analyzed in the FMT again and the fluorescence intensity was detected. Reconstruction of the data was performed by VisEn software.

calcifications [4] = experiment: In vivo 3D fluorescence molecular tomography of whole mice; design: species or system DBA/2 mice
Procedure: as §1

calcified lesions = experiment: Histology: staining of calcified lesions with unlabelled or Alexa Fluor 488 labelled fetuin-A (injected or applied to sections); assay type: in vivo, fetuin-A deficient mice
Procedure: The mice were injected with unlabelled or Alexa Fluor® 488 coupled fetuin-A. They received 100 µl / 25 g body weight of a 7 mg/ml solution. Five hours after injection the mice were killed, organs were harvested, embedded in TissueTek (Sakura), and snap-frozen and in liquid nitrogen. Serial cryotome sections were prepared and fixed in ice cold acetone. For general histology hematoxilin/eosin staining and von-Kossa staining were performed.
To localize unlabelled fetuin-A, sections were incubated for one hour with a homemade polyclonal rabbit anti bovine fetuin-A antibody followed by secondary goat anti rabbit Alexa Fluor® 546 antibody and DAPI staining. To localize calcified lesions, sections were incubated with Alexa Fluor® 488-coupled fetuin-A for one hour and then were counterstained with DAPI. Sections of organs from mice injected with Alexa Fluor® 488 labelled Fetuin A were stained with DAPI only.

| Molecule | combined signal from regions of interest (ROI), kidneys (calcifications [1]; Fetuin-A-/- mice, kidneys) [counts/energy] | combined signal from regions of interest (ROI), lungs (calcifications [1]; Fetuin-A-/- mice, lungs) [counts/energy] | staining of heart (explanted organ) (calcifications [1]; fetuin-A deficient mice) | staining of brown fat, lungs and kidneys (explanted organs) (calcifications [1]; fetuin-A deficient mice, heavily calcified organs) | tissue accumulation, Fetuin-A-/- versus wildtype, kidneys (calcifications [1]; kidneys) | tissue accumulation, Fetuin-A-/- versus wildtype, lungs (calcifications [1]; lungs) | signal (2D reflectance images) (calcifications [1]; tissues (brown fat, heart, lung, kidneys) from wildtype mice, OsteoSense at both 1-fold and 10-fold sensitivity setting) [Count/Energy] | combined signal from regions of interest (ROI), kidneys (calcifications [1]; wildtype mice, kidneys) [counts/energy] | combined signal from regions of interest (ROI), lungs (calcifications [1]; wildtype mice, lungs) [counts/energy] | CT-FMT fused signal localization (calcifications [2]; D2, fetuin-A+/+ wildtype mice) | CT-FMT fused signal localization (calcifications [2]; D2, fetuin-A-/- mice) | whole body 2D scan signal (calcifications [3]; D2, Fetuin-A+/+ wildtype mice) | whole body 2D scan signal (calcifications [3]; D2, Fetuin-A-/- mice) | 3D fluorescence tomography staining pattern (calcifications [4]; DBA/2 wildtype mouse (Fig. 6A, B)) | excretion route (staining of the digestive tract, signal associated with faeces) (calcifications [4]; digestive tract) | 3D fluorescence tomography signal (calcifications [4]; fetuin-A deficient (knockout) mouse (Fig. 6D)) | 3D fluorescence signal strength (calcifications [4]; wildtype and knockout animal (Fig. 6A, C), higher in wildtype than in knockout) | lesion size detected compared with established histology methods (H/E, von Kossa) (calcified lesions; Fig. 1, injected into live animals or applied to histological sections) | detection of lesions in serial sections of the heart (calcified lesions; Fig. 2, fetuin-A deficient mouse, compared with Hematoxylin-Eosin and von Kossa) | staining of calcified lesions (calcified lesions; fetuin-A deficient mice, both in vivo (injected) and on sections) |
| --- | --- | --- | --- | --- | --- | --- | --- | --- | --- | --- | --- | --- | --- | --- | --- | --- | --- | --- | --- | --- |
| Fetuin-A Alexa 680: Fetuin-A monomer (Sigma Aldrich, F2379), purified by gel chromatography, coupled to Alexa Fluor® 680 dye | 6740 | 3303 | stained weakly | strongly stained | increased over six-fold | almost doubled | 0.25 | 1025 | 1816 | low signal in the digestive tract | faint signal in the neck and the thorax, but a higher one in the kidney and the digestive tract | no signal | strong signals | outlined the gut, kidneys and the brown fat pad in the neck | at least partially excreted through this route | highly detected in the neck and in the left kidney but also in the gut | much higher | – | – | – |
| Alexa Fluor® 488-labelled fetuin-A: Fetuin-A monomer (Sigma Aldrich, F2379), purified by gel chromatography, coupled to Alexa Fluor® 488 dye (conjugate, UniProt P12763 19-359, looked up, Alexa Fluor 488 dye, Fetuin-A monomer (Sigma Aldrich, F2379), purified by gel chromatography, coupled to Alexa Fluor® 488 dye) Alpha-2-HS-glycoprotein: IPLDPVAGYKEPACDDPDTEQAALAAVDYINKHLPRGYKHTLNQIDSVKVWPRRPTGEVYDIEIDTLETTCHVLDPTPLANCSVRQQTQHAVEGDCDIHVLKQDGQFSVLFTKCDSSPDSAEDVRKLCPDCPLLAPLNDSRVVHAVEVALATFNAESNGSYLQLVEISRAQFVPLPVSVSVEFAVAATDCIAKEVVDPTKCNLLAEKQYGFCKGSVIQKALGGEDVRVTCTLFQTQPVIPQPQPDGAEAEAPSAVPDAAGPTPSAAGPPVASVVVGPSVVAVPLPLHRAHYDLRHTFSGVASVESSSGEAFHVGKTPIVGQPSIPGGPVRLCPGRIRYFKI | – | – | – | – | – | – | – | – | – | – | – | – | – | – | – | – | – | also detected much smaller lesions | enabled the detection of an additional very small lesion | readily stained calcified lesions |
